In general, Papp refers to a coefficient for how fast a substance crosses the barrier. A higher Papp goes with ready permeation. By IC50 is commonly meant the point on the concentration scale where inhibition reaches its midpoint. For orientation: inhibition means the drop in the measured response relative to a control, in per cent.

Results on three compounds are retold here after patent US9604947B2, “Substituted 5-imino-1,2,4-thiadiazoles that can be used to treat neurodegenerative diseases” (CONSEJO SUPERIOR DE INVESTIGACIONES CIENTIFICAS (CSIC), priority 2009, dated 2017).

A short description of one data set: in vitro. The note with it: PAMPA; for Papp at 4 h: pH 7.4. On the procedure: Ten commercial reference drugs, phosphate buffer saline solution at pH 7.4 (PBS), DMSO and dodecane were purchased from Sigma, Acros organics, Aldrich and Fluka. […] Filter PDVF membrane units (diameter 30 mm, pore size 0.45 μm) from Symta were used to filtered the samples. A 96-well plate UV reader (Thermoscientific, Multiskan spectrum) was used for the UV measurements. […] These solutions were filtered. The acceptor 96-well microplate was filled with 180 μL of PBS:DMSO (95:5). The donor 96-well plate was coated with 4 μL of porcine brain lipid in dodecane (20 mg mL^−1) and after 5 minutes, 180 μL of each compound solution was added. 1-2 mg of every compound to be determined their ability to pass the BBB were dissolved in 250 μL of DMSO and 4750 μL of PBS pH 7.4 buffer, filtered and then added to the donor 96-well plate. Then the donor plate was carefully put on the acceptor plate to form a “sandwich”, which was left undisturbed for 4 h at 25° C.
During this time the compounds diffused from the donor plate through the brain lipid membrane into the acceptor plate. After incubation, the donor plate was removed. The concentration of compounds and commercial drugs in the acceptor and the donor wells was determined by UV plate reader. Every sample was analyzed from three to five wavelengths, in 3 wells and in at least three independent runs. […] 11 quality control compounds (previously mentioned) of known BBB permeability were included in each experiment to validate the analysis set.
(In PAMPA a lipid-coated filter parts donor from acceptor wells.)

A further data set concerns the target T1, PDE7A1 (Homo sapiens, UniProt Q13946).
T1 construct: purchased Calbiochem 524751
In words: Determination of PDE7 inhibition (SPA, [3H]cAMP). The data set is classed as biochemical. The note with it: for IC50: 1,2,4-thiadiazoles-5-imino substituted as hydrobromides, read-out: IC50 (PDE7A). The method, then:
PDE-7 inhibition was performed with a commercial kit for the determination of phosphodiesterase activity (GE Healthcare Life Sciences, cat#TRKQ7090).
The compounds to be evaluated were incubated (in concentrations between 0.1 nM and 100 μM) in presence of 0.02 U/well of PDE7A1 (Calbiochem cat#524751) and 0.05 μCi of [^3H] cAMP, for 20 min at 30° C. in the assay buffer of kit (total volume=100 μl).
After this time, 50 μl of a suspension of 20 mg/ml microspheres of SPA of Ytrium silicate were added and was maintained under stirring at room temperature for 60 min. Finally, the plate was settled for 20 min and radioactivity was detected in a Microbeta Trilux reader.
In every assay there were included two points without PDE7A1 (blank) and two points with PDE7A1 without inhibitors (control).
Data Analysis: All the compounds were evaluated firstly at the concentration of 10 μM and the percentage of PDE7A1 inhibition was calculated, according to the following formula (cpm=counts per minute): % Inhibition=((cpm control−cpm sample)×100)/(cpm control−cpm blank assay).
For those compounds with % inhibition values above 45% it was calculated its inhibitory potency (IC50) building the dose-response curve.
The data were adjusted with the software Prism v 2.1 (GraphPad Software) using the non lineal fitting.

T1 sequence (Q13946 whole entry): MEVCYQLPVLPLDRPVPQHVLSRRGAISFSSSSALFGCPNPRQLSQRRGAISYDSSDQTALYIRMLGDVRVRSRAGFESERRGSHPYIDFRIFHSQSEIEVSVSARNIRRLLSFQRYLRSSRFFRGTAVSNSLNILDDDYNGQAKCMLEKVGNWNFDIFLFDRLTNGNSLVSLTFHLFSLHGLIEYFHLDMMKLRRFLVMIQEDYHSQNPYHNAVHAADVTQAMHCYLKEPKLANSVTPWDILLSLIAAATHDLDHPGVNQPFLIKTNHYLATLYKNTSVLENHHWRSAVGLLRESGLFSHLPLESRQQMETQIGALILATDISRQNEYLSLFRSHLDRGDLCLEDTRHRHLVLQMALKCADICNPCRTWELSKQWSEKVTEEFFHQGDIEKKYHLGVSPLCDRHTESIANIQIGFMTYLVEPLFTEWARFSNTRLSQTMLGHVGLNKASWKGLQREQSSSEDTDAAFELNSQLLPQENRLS

Regarding `Br.Br.COc1ccc(-c2nc(=NCc3cccnc3)sn2-c2ccccc2)cc1` [VP-1.43, 3-(4-Methoxyphenyl)-2-phenyl-5-(3-pyridylmethylimino)-2,5-dihydro-1,2,4-thiadiazole dihydrobromide], in the data set “in vitro”, the “Prediction (predictive penetration in the CNS)” value (“Prediction” below) is “CNS+” and the Papp at 4 h came to 4.4 ± 0.6 ×10⁻⁶ cm/s. The IC50 at PDE7A1 worked out at 860 nM.
Consider `Br.Br.Cc1nc(=NCc2cccnc2)sn1-c1ccccc1` [VP-2.63, 3-Methyl-2-phenyl-5-(3-pyridylmethylimino)-2,5-dihydro-1,2,4-thiadiazole dihydrobromide], for which, in the data set “in vitro”, the “Prediction” value is reported as “CNS+” and the Papp at 4 h was determined as 5.3 ± 0.9 ×10⁻⁶ cm/s. In addition, the inhibition at 10 µM on PDE7A1 (read-out: % inhibition of PDE7A at 10 μM, hydrobromides, at 10 μM) came to 54%.
On to `Br.OCCN=c1nc(-c2ccccc2)n(-c2ccccc2)s1` [VP-1.15, 5-(2-Hydroxyethylimino)-2,3-diphenyl-2,5-dihydro-1,2,4-thiadiazole hydrobromide], for which, in “in vitro”, the “Prediction” value is “CNS+” and the apparent permeability (Papp) at 4 h was 15.4 ± 2 ×10⁻⁶ cm/s. In addition, the IC50 on PDE7A1 stood at 1110 nM.
